Data set [1] deals with T1, F508del CFTR in NIH3T3 cells (Homo sapiens, UniProt P13569, DEL508-508).
T1 construct: expressed in transfected cells
Briefly: Membrane potential optical assay (correction assay) for F508del-CFTR modulators. Format: cell-based. The settings on record: NIH3T3 cells expressing F508del. The source says:
Membrane Potential Optical Methods for Assaying Properties of F508del-CFTR Modulators
An optical assay was employed to measure changes in membrane potential to determine the CFTR modulator properties of compounds. The assay utilized fluorescent voltage sensing dyes to measure changes in membrane potential using a fluorescent plate reader (e.g., FLIPR III, Molecular Devices, Inc.) as a readout for increase in functional F508del in NIH 3T3 cells. The driving force for the response was the creation of a chloride ion gradient in conjunction with channel activation and concurrent with compound treatment by a single liquid addition step after the cells had previously been loaded with a voltage sensing dye.
NIH3T3 mouse fibroblasts stably expressing F508del were used for optical measurements of membrane potential. The cells were maintained at 37° C. in 5% CO2 and 90% humidity in Dulbecco's modified Eagle's medium supplemented with 2 mM glutamine, 10% fetal bovine serum, 1×NEAA, β-ME, 1×pen/strep, and 25 mM HEPES in 175 cm^2 culture flasks. […] The cells were then activated and treated with Compound I. After 18-24 hours, fluorescence from the voltage sensing dye in the cells was measured to assess changes in the membrane potential as a read out for increase in functional F508del CFTR in the NIH3T3 cells.

The target in data set [2] is T2, F508del-CFTR in human bronchial epithelial (HBE) cells (Homo sapiens, UniProt P13569, DEL508-508).
T2 construct: endogenous in cells; host or cells: primary CF human bronchial epithelial (HBE) cells
The data set can be described thus: Ussing chamber assay, chloride current in airway epithelial (HBE) cells expressing F508del. Format: cell-based. Here is the method:
Ussing chamber experiments were performed on polarized airway epithelial cells expressing F508del to further characterize the F508del modulators identified in the optical assay above. Non-CF and CF airway epithelia were isolated from bronchial tissue, cultured using methods well known in the art, and plated onto Costar® Snapwell™ filters that were precoated with NIH3T3-conditioned media. After four days the apical media was removed and the cells were grown at an air liquid interface for >14 days prior to use. […] CF-HBE cells were isolated from patients homozygous for F508del (F508del/F508del-HBE) or heterozygous for F508del with a different disease causing mutation on the other allele.
HBE cells grown on Costar® Snapwell™ cell culture inserts were mounted in an Ussing chamber (Physiologic Instruments, Inc., San Diego, Calif.), and the transepithelial resistance and short-circuit current in the presence of a basolateral to apical Cl^− gradient (ISC) were measured using a voltage-clamp system (Department of Bioengineering, University of Iowa, IA). Briefly, HBE cells were examined under voltage-clamp recording conditions (Vhold=0 mV) at 37° C. […]
A basolateral to apical membrane Cl^− concentration gradient was set up as follows. […] Chloride current was measured to assess the increase in functional CFTR in the cell membrane.

A short description of data set [3]: Rat pharmacokinetics, single IV and oral dose. Format: in vivo. To be noted: male Sprague Dawley rats. Here is the method: Compound 1 was also administered to male Sprague Dawley rats at single nominal oral dose (PO) of 3 mg/kg as a solution in 5% NMP, 30% PEG400, 10% TPGS, 5% PVP-K30 at 5 mL/kg dose volume.
The study design, sample tracking, data run design and individual plasma sample concentrations were stored using Watson LIMS software, Version 7.4.2 (Thermo Scientific Inc, Waltham, Mass.). Plasma concentration-time profiles of Compound 1 in Sprague Dawley rats at scheduled (nominal) sampling times were analyzed by noncompartmental pharmacokinetic methods using PK function within Watson LIMS software, Version 7.4.2 (Thermo Scientific Inc, Waltham, Mass.). Key pharmacokinetic parameters such as “area under the curve” (AUC), from the time of drug administration, time zero, extrapolated to infinity, clearance (CL), and Percent of oral bioavailability (% F) were determined. The AUC values were calculated using the linear trapezoidal rule.
In Table 21 below, Compound I is shown to have advantageous rat oral exposure (AUC) and oral bioavailability.

Another data set concerns the target F508del-CFTR protein (Homo sapiens, UniProt P13569, DEL508-508). The data set can be described thus: CFTR processing and trafficking to the cell surface (Example 15). Format: cell-based.
A further data set deals with CFTR (Homo sapiens, UniProt P13569). The settings on record: disclosed in PCT Application No. PCT/US2017/065425; read-out: EC50 as CFTR modulator; cited from earlier work.
Data set [4] is described as follows: Solid form assessment of Compound I (thermodynamic stability). Format: physicochemical. To be noted: among solid forms of Compound I. The source says: In some embodiments, Compound I is Form A. In some embodiments, crystalline Form A is characterized by an X-ray powder diffractogram having a signal at least one two-theta value chosen from 6.6±0.2, 7.6±0.2, 9.6±0.2, 12.4±0.2, 13.1±0.2, 15.2±0.2, 16.4±0.2, 18.2±0.2, and 18.6±0.2. In some embodiments, crystalline Form A is characterized by an X-ray powder diffractogram having a signal at at least three two-theta values chosen from 6.6±0.2, 7.6±0.2, 9.6±0.2, 12.4±0.2, 13.1±0.2, 15.2±0.2, 16.4±0.2, 18.2±0.2, and 18.6±0.2. In some embodiments, crystalline Form A is characterized by an X-ray powder diffractograph having a signal at at least three two-theta values chosen from 6.6±0.2, 9.6±0.2, 13.1±0.2, 15.2±0.2, 18.2±0.2, and 18.6±0.2. In some embodiments, crystalline Form A is characterized by an X-ray powder diffractograph having a signal at three two-theta values of 6.6±0.2, 13.1±0.2, 18.2±0.2. In some embodiments, crystalline Form A is characterized by an X-ray powder diffractograph having a signal at six two-theta values of 6.6±0.2, 9.6±0.2, 13.1±0.2, 15.2±0.2, 18.2±0.2, and 18.6±0.2. In some embodiments, Crystalline Form A is characterized by an X-ray powder diffractogram substantially similar to that in FIG. 4A. In some embodiments, Crystalline Form A is characterized by an X-ray powder diffractogram substantially similar to that in FIG. 4B.

Data set [5] can be described thus: Bioavailability of crystalline Form A of Compound I. Format: in vivo.

Molecules are shown by their SMILES.

T2 sequence (P13569 with tags, fused parts or gaps DEL508-508): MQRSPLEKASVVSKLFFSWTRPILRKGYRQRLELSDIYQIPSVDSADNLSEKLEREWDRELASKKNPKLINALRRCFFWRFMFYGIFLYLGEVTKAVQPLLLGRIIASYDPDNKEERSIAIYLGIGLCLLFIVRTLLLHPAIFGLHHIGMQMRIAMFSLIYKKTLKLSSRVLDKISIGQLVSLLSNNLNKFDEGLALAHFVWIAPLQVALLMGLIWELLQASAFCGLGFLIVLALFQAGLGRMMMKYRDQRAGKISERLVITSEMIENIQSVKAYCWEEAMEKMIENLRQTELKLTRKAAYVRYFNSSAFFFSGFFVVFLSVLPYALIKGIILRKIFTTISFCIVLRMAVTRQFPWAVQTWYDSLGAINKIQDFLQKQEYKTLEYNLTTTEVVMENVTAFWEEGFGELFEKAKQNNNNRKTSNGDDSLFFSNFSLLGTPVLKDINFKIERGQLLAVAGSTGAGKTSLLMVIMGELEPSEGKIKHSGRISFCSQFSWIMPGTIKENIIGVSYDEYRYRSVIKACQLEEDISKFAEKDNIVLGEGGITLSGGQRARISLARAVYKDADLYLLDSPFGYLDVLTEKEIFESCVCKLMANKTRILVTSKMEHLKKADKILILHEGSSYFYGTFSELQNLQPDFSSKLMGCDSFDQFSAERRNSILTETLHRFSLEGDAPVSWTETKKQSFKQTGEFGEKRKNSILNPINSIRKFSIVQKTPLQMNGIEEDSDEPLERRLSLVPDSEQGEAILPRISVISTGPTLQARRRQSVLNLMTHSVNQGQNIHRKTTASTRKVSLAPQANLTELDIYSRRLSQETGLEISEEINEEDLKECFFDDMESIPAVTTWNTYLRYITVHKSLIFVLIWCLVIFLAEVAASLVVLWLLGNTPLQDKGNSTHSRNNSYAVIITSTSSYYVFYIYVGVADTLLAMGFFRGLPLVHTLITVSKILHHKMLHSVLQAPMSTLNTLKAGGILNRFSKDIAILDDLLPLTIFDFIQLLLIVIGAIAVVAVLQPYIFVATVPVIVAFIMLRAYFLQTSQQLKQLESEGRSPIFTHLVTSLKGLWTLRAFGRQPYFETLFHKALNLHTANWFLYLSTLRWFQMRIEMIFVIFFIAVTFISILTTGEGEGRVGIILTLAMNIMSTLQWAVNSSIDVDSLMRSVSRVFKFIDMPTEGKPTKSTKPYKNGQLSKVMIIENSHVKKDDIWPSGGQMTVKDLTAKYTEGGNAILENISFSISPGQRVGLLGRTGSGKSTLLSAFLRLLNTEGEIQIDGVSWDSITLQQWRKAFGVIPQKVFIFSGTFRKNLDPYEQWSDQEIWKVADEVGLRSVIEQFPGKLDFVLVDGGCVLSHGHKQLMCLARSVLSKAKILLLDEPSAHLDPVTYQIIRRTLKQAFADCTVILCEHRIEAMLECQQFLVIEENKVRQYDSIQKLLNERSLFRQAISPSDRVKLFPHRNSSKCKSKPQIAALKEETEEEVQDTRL
T1 sequence (P13569 with tags, fused parts or gaps DEL508-508): as above
Sequence of F508del-CFTR protein (P13569 with tags, fused parts or gaps DEL508-508): as above

For the compound `Cc1nn(C)cc1S(=O)(=O)NC(=O)c1ccc(-n2ccc(OCC(C)(C)C(F)(F)F)n2)nc1N1C[C@@H](C)CC1(C)C` [Compound I, N-(1,3-dimethylpyrazol-4-yl)sulfonyl-6-[3-(3,3,3-trifluoro-2,2-dimethyl-propoxy)pyrazol-1-yl]-2-[(4 S)-2,2,4-trimethylpyrrolidin-1-yl]pyridine-3-carboxamide], the EC50 (usually the concentration needed to bring the measured effect to its halfway point) in data set [1] (18-24 hours treatment) was under 3000 nM; in data set [2] it was under 2000 nM; on CFTR it was 70 nM. Moreover, the Emax in data set [1] (relative to Compound II, read-out: % Efficacy relative to Compound II) was at least 100%. Also, the “HBE Max Eff (%)” value in data set [2] (% Efficacy) is given as “+++ (“+++” means >100%)”. Further, in data set [3] (PO 3 mg/kg), the “rat oral exposure (AUC)” value is recorded as “advantageous”. For the same compound, the oral bioavailability result in data set [3] (PO 3 mg/kg vs IV 3.0 mg/kg) is reported as “advantageous”. Further, the “Rat PO AUC/dose” value in data set [3] (single nominal oral dose 3 mg/kg, dose-normalised) is 9.4 ± 0.7 µg·h/mL/mg/kg. Also, the bioavailability in data set [3] (rat, plasma, oral bioavailability, PO 3 mg/kg vs IV 3.0 mg/kg, read-out: Rat % F) stood at 84%. Also, in data set [3] (rat, plasma, single nominal IV dose 3.0 mg/kg, read-out: Rat iv CL), the clearance stood at 1.6 ± 0.4 mL/min/kg. Moreover, the AUC (as a rule, the area under the concentration-time curve, a measure of exposure) in data set [3] (rat, plasma, single nominal oral dose 3 mg/kg, AUC extrapolated to infinity) is 23500 ± 1700 ng·h/mL. Further, the “CFTR corrector activity (processing and trafficking of F508del-CFTR, enhanced chloride transport)” value at F508del-CFTR protein was “potent, efficacious, and selective”.

In the case of `Cc1nn(C)cc1S(=O)(=O)NC(=O)c1ccc(-n2ccc(OCC(C)(C)C(F)(F)F)n2)nc1N1C[C@@H](C)CC1(C)C` [Crystalline Form A, N-(1,3-dimethylpyrazol-4-yl)sulfonyl-6-[3-(3,3,3-trifluoro-2,2-dimethyl-propoxy)pyrazol-1-yl]-2-[(4 S)-2,2,4-trimethylpyrrolidin-1-yl]pyridine-3-carboxamide], in data set [4], the “thermodynamic stability of solid form” value is “most thermodynamically stable form”. Further, the bioavailability result in data set [5] is “good”.

The values are drawn from patent US11179367B2, “Pharmaceutical compositions for treating cystic fibrosis” (Vertex Pharmaceuticals Incorporated, priority 2018, dated 2021).
